The target in one series is T1, potassium channel Kv1.3 (Homo sapiens, UniProt P22001).
T1 construct: expressed in transfected cells; host or cells: COS-7 cells, selected with 0.8 mg/mL geneticin
Nature of the series: whole-cell patch clamp, inhibition of Kv1.3 current in transfected COS-7 cells. Format: cell-based. Conditions: potassium channel Kv1.3 in COS-7 cells, read-out: polypeptide concentrations that inhibit the current by half (IC50 value). Here is the method:
COS-7 cells were cultured in a DMEM medium containing 10% fetal calf serum, at 37° C, 5% CO2. The recombinant plasmids of potassium channel Kv1.3 were transfected by using a Sofast™ transfection kit, and the transfected cells were selectively cultured in a medium containing 0.8 mg/mL geneticin. The pharmacological activities of scorpion active polypeptides ADMR-011, ADMR-016, ADMR-019, ADMR-023 and ADMR-028 were tested and analyzed by using an instrument of whole-cell patch clamp (EPC-10 dual-channel patch clamp amplifier HEKA, Elektronik, Lambrecht, Germany). The setting of the experimental parameters, the collecting of data, and the applying of stimulus were all controlled by Pulse software (Elektronik, Lambrecht, Germany). The filter of the instrument was set to be 10 kHz (Bessel), and the electrode impedance was 2∼5 MΩ. After the formation of giga-seal (1∼5 GΩ) between the electrode and cell membrane, an automatic c-fast was performed, and the membrane was broken by slightly applying negative pressure, then an automatic c-slow was performed. At a holding potential of -70 mV, depolarizing pulses, incrementing in 10 mV steps, with a step width of 80 ms , were given to stimulate from -60 mV to +50 mV, and the condition of current was observed. The polypeptides ADMR-011, ADMR-016 and ADMR-019 were accurately perfused, which was achieved by MPS-2 (INBIO Inc, Wuhan, China) perfusing system. After dissolving the three scorpion active polypeptides, they were applied by spraying via DAD Drug Application System (ALA), and the tip of the tube for drug application was about 100 µm away from the cell being recorded.
It can be known from Figure 16 to Figure 20 that, the pharmacological activity of ADMR-011 on potassium channel Kvl.3 was 91 pM, the pharmacological activity of ADMR-016 on potassium channel Kvl.3 was 2.58 nM, the pharmacological activity of ADMR-019 on potassium channel Kv1.3 was 1.41 nM, and the pharmacological activity of ADMR-023 and ADMR-028 on potassium channel Kvl.3 were 0.49 nM and 0.65 nM, respectively. Therefore, they are polypeptides with potent activity that are currently found internationally.
(The patch-clamp technique gives a direct electrical read-out from membranes.)

The next series has as its system Wistar rat EAE model. Put plainly: EAE (multiple sclerosis) model in Wistar rats induced by GPSCH-CFA, clinical scoring. Conditions: 100 µg·kg^-1 subcutaneously once every day, x±s, n=10, score 0-5. The series is classed as in vivo. An excerpt:
Experimental animals: female inbred line Wistar rats (6∼8 week old, body weigh 150±10 g) and guinea pigs (300∼400 g, purchased from Wuhan University Laboratory Animal Center) were selected.
Formulating a mixed emulsion of whole spinal cord homogenate - Freund's complete adjuvant (GPSCH-CFA): a guinea pig was executed, and the spinal cord was rapidly removed, and prepared into 50% PBS homogenate by a ultrasonic disruptor (Sonics & Materials Inc, America), which was mixed with equal amount of Freund's complete adjuvant (BCG vaccine 10 mg/ml), and was pushed back and forth with syringes until forming a water-in-oil emulsion.
Wistar rat EAE model induced by EAE: GPSCH-CFA emulsion was injected intradermally into the foot pads of both the hind legs of Wistar rats, or simultaneously injected intradermally about 1×10^10 pertussis vaccine. The rats were weighed every day, and observed for their neurological symptoms. Experimental autoimmune encephalomyelitis appeared after the rats had been raised for 2 weeks.
The rats with experimental autoimmune encephalomyelitis (EAE) were divided into […] groups randomly: normal control group (negative control group), model control group (model rats + normal saline), administration group A (model rats + ADMR-011 polypeptide), administration group B (model rats + ADMR-016 polypeptide), administration group C (model rats + ADMR-019 polypeptide), administration group D (model rats + ADMR-023 polypeptide), and administration group E (model rats + ADMR-028 polypeptide), 10 rats for each group. For the administration groups, polypeptides ADMR-011, ADMR-016, ADMR-019, ADMR-023 and ADMR-028 were injected subcutaneously respectively at a dose of 100 µg·kg^-1, once every day in the morning. For the normal control group and the model control group, equivalent amount of normal saline was injected subcutaneously, and administered continuously. […] The highest clinical score for each animal was recorded, and the average value of them was taken to be the average clinical score.
The scoring criteria were: without any clinical symptom, 0 point; disappearance of tension in the tail, and observable mild awkward gait, 1 point; weakness in both the hind limbs, which can recover after passive body flipping, 2 points; paralysis in both the hind limbs, which can not recover after passive body flipping, 3 points; tetraplegia accompanied by incontinence of urine and feces, 4 points; moribund state or death, 5 points. Table 1. Scores for rats of various experimental groups in the EAE model (-x±s)

For another series, the system named is rheumatoid arthritis. Nature of the series: pristane-induced rheumatoid arthritis in SD rats, joint score and hind foot plantar swelling. Further details: key to Score of joint: clinical score 1-4: 1 joint red/swollen=1 ... severe whole-limb arthritis=4. The series is classed as in vivo. Conditions: x±s, n=10; for Score of joint: arthritis rats, polypeptides 100 µg·kg^-1 (methotrexate 1.75 µg·kg^-1) subcutaneously once every day, score 1-4; for The swelling degree after the inflammation: volume difference of hind foot before and after the modeling. How it is done: […] Female (♀) specific pathogen free (SPF) inbred line SD rats (Wuhan University Laboratory Animal Center), body weight 150±10 g, were selected, and pristane was injected intradermally at the base of the tail of rats in experimental groups at a dose of 0.2 ml/rat, after they were acclimatized in a clean-grade environment for 1 week. Rheumatoid arthritis appeared after the rats were raised for only 2 weeks.
The rats having arthritis were randomized into: normal control group (negative control group), model negative control group (model rat + normal saline), model positive control group (model rat + methotrexate), administration group A (model rat + ADMR-011 polypeptide), administration group B (model rat + ADMR-016 polypeptide), administration group C (model rat + ADMR-019 polypeptide), administration group D (model rat + ADMR-023 polypeptide), and administration group E (model rat + ADMR-028 polypeptide), 10 rats for each group. The administration groups were injected subcutaneously at a dose of 100 µg·kg^-1, once every day in the morning, and administered continuously; the normal control group and the model negative control group were injected subcutaneously with equivalent amount of normal saline; and the model positive control group were injected subcutaneously with methotrexate (MTX) at a dose of 1.75 µg·kg^-1, once every day, and administered continuously.
The highest clinical score for each animal was recorded, and the average value of them was taken to be the average clinical score. The scoring criteria were: one joint of a rat was red and swollen, 1 point; two joints of a rat were red and swollen, 2 points; all the joints of a rat were red and swollen, 3 points; severe arthritis in the entire limb of a rat, 4 points. Table 2. Arthritis scores for rats of various experimental groups (-x±s)
From day 8 of the experiment, the hind foot plantar volume of the rat was measured and recorded every other day for 21 consecutive days, and the swelling degree (mL) was calculated according to the volume difference before and after the modeling. Table 3. The swelling degree of rats in various experimental groups (-x±s)

The next series concerns Kunming mice. Nature of the series: toxicity study in mice, single intraperitoneal injection, 7 days observation. Format: in vivo. Conditions: 10 mg/kg intraperitoneally once (100 times the dose for animal model), observed 7 days. How it is done: 18∼20 g Kunming mice were selected, and divided into 4 groups, 8 male mice and 8 female mice for each group. The lyophilized powders of scorpion active polypeptides ADMR-011, ADMR-016, ADMR-019, ADMR-023 and ADMR-028 were dissolved with normal saline respectively, and the 3 groups of mice were injected intraperitoneally once respectively with polypeptide solution at a dose of 10 mg/kg (100 times of the dose for animal model), and the fourth group were injected with equivalent amount of normal saline as control.
After the administration, the respiration, motor and heartbeat in animals of all the groups were all normal, without significant abnormal reaction. 7 days after the administration, all the animals were conducted gross anatomy to observe the volume, color and texture of the main organs (heart, liver, spleen, lung, and kidney), and there was no macroscopic lesion. There were no significant difference between the 3 administration groups and the normal saline group.

This is an account of results in EP2653477B1, “SCORPION ACTIVE PEPTIDES AND PREPARATION METHODS AND APPLICATIONS THEREOF” (Wuhan More Biotechnology Co., Ltd., priority 2010, dated 2012).

Bridge positions count the residues as written; N and C are the ends. Peptide text beside a SMILES is read from it.

T1 sequence (P22001 whole entry): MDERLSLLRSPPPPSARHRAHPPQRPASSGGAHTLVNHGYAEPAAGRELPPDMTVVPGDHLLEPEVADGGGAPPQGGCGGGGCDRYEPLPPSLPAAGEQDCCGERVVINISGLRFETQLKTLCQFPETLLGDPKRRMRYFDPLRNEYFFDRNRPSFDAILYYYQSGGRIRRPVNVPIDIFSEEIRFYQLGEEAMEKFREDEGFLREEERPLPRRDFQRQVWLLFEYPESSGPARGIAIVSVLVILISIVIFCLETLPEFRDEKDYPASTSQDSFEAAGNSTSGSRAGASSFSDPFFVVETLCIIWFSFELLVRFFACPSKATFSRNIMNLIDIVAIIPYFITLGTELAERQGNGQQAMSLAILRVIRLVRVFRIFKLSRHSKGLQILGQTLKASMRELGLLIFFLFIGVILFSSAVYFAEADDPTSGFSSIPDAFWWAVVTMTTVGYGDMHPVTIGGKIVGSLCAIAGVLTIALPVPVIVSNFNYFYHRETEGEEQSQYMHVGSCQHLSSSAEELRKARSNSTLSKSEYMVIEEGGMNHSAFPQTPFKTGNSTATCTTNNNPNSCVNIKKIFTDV

For the compound `CC[C@H](C)[C@@H]1NC(=O)CNC(=O)[C@H](CCC(=O)O)NC(=O)[C@@H]2CSSC[C@@H](C(=O)N[C@@H](Cc3ccc(O)cc3)C(=O)N[C@@H](CCCNC(=N)N)C(=O)O)NC(=O)[C@H](C(C)C)NC(=O)[C@@H]3CSSC[C@H](NC(=O)[C@H](CCC(=O)O)NC(=O)[C@H](CO)NC(=O)[C@H](CO)NC(=O)CNC(=O)[C@H](CC(N)=O)NC(=O)[C@@H](NC(=O)[C@H](CCC(=O)O)NC(=O)[C@H](CCCCN)NC(=O)[C@H](CO)NC(=O)[C@@H](NC(=O)[C@H](Cc4ccc(O)cc4)NC(=O)[C@@H](NC(=O)[C@@H](N)CCC(N)=O)[C@@H](C)CC)[C@@H](C)O)CSSC[C@H](NC(=O)[C@H](CCCCN)NC(=O)CNC(=O)[C@H](CO)NC(=O)[C@H](CCCNC(=N)N)NC(=O)[C@H](CCCCN)NC(=O)CNC(=O)[C@H]([C@@H](C)O)NC1=O)C(=O)N[C@@H]([C@@H](C)CC)C(=O)N[C@@H](CC(N)=O)C(=O)N[C@@H](CCCCN)C(=O)N[C@@H](CCCCN)C(=O)N3)C(=O)N[C@@H](Cc1ccc(O)cc1)C(=O)N[C@@H](CO)C(=O)N[C@@H](Cc1c[nH]cn1)C(=O)N2` [ADMR-011] (H-QIYTSKECNGSSECYSHCEGITGKRSGKCINKKCVCYR-OH; disulfide 8-29, 14-34, 18-36 (inferred); N-terminus and C-terminus assumed), the IC50 on potassium channel Kv1.3 turned out to be 0.091 nM. Moreover, the Average clinical scores was found to be 0.47±0.18 with Wistar rat EAE model (8 d), 0.75±0.21 in the series on Wistar rat EAE model (10 d), 0.83±0.35 with Wistar rat EAE model (12 d) and 0.95±0.37 with Wistar rat EAE model (14 d). The Score of joint in the series with rheumatoid arthritis (10 d) was determined as 1.63±0.57; with rheumatoid arthritis (15 d), 2.07±0.65; in the series with rheumatoid arthritis (21 d) it was 1.62±0.59. In addition, the “The swelling degree after the inflammation” value with rheumatoid arthritis (d8) is 0.041 ± 0.012 mL; in the series with rheumatoid arthritis (d15), 0.21 ± 0.06 mL; in the series on rheumatoid arthritis (d22), 0.29 ± 0.09 mL; in the series with rheumatoid arthritis (d28) it was 0.24 ± 0.13 mL. Also, the toxicity in mice result with Kunming mice is listed as “no significant toxicity”.
